According to publication PMC12974487, “Inhibition of FicD-mediated AMPylation and deAMPylation by isoprenoid diphosphates” (Proceedings of the National Academy of Sciences of the …, 2026):
Where a chain is given by its changes, count along the chain named.

Tests used:
FicD^E234G = target: T1, FicD^E234G (Homo sapiens, UniProt Q9BVA6, E234G); assay: MIDAS metabolite screen, FicD^E234G; format: binding; details: cutoff Q < 0.05 and |Log2 corrected fold change| > 2, metabolites 5 µM
T1 construct: soluble ER luminal domain (residues 105 to 458) of wild-type human FicD and three mutants; 6xHis-Sumo (N, cleaved yes); made in house; host or cells: Rosetta(DE3) E. coli
T1 sequence (Q9BVA6 105-458 E234G): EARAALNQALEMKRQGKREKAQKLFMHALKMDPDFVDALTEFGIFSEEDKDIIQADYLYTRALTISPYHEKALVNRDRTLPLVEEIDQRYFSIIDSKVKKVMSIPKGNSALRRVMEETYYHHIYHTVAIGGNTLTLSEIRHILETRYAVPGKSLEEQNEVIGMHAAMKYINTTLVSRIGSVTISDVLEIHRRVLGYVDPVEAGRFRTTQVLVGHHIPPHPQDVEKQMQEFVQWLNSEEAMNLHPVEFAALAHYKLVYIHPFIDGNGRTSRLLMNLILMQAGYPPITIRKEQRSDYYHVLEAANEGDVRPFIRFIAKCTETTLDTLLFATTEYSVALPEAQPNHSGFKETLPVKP
Text: To identify small-molecule metabolite interactions with FicD, we applied an unbiased high-throughput screening approach known as MIDAS ([44]).

FicD^WT = target: T2, FicD^WT (Homo sapiens, UniProt Q9BVA6); assay: In vitro deAMPylation of Δ26hBiP^T229A-AMP by FicD^WT (Western blot); format: biochemical; details: for inhibition of deAMPylation activity of FicD^WT: 100 μM metabolite, 5 mM MgCl2; for concentration at which inhibition of deAMPylation started: dose-response Western blot, FicD^WT
T2 construct: soluble ER luminal domain (residues 105 to 458) of wild-type human FicD; 6xHis-Sumo (N, cleaved yes); made in house; host or cells: Rosetta(DE3) E. coli
T2 sequence (Q9BVA6 105-458): T1 sequence (Q9BVA6 105-458 E234G) with G130E
Text: We next sought to assess the effects of FPP, GPP, and isoprenoid analogues on FicD activity. To accurately judge the effects of small molecules on FicD AMPylation activity, we used the ATPase defective BiP^T229A mutant as substrate ([22], [49], [50]). Loss of ATP hydrolysis by the BiP mutant ensures: 1. conformational homogeneity of the BiP protein substrate; 2. lack of BiP competition for the ATP substrate; and 3. no production of ADP, a competitive inhibitor for ATP. In addition, we deleted the first 25 amino acids of BiP for ease with its purification and solubility. […]
For deAMPylation assays with FicD and BiP, Δ26hBiPT229A was in-vitro AMPylated by […]
5mM MgCl2, 500uM ATP, 0.5% CHAPS, 1mM DTT. After one hour of incubation at 30-37C, the entire reaction mix was transferred into an Amicon 0.5mL 50kDa MWCO concentrator (cat no.
7.4/150mM NaCl/10% glycerol/1mM DTT was added to the concentrated AMPylation reaction and then spun down again at 14,000 x g at 4C for 5-10 minutes. This step was repeated four times to buffer exchange AMPylated Δ26hBiPT229A.
Δ104hFicDWT and Δ26hBiPT229A-AMP were combined at a ratio of 1:80 in buffer containing 25mM HEPES pH 7.4, 100mM KCl, 5mM MgCl2, 1mM DTT and the indicated small molecule where applicable. Reactions were incubated at 37C for 1 hour and stopped by the addition EDTA. 5X SDS sample buffer (250mM Tris pH 6.8, 10% Lithium dodecyl sulfate, 50% glycerol, 50mM DTT, 0.05% Bromophenol blue) was then added to the reactions and reactions were heated for 5 minutes at […]

With Nc1ncnc2c1ncn2[C@@H]1O[C@H](COP(=O)(O)OP(=O)(O)O)[C@@H](O)[C@H]1O [ADP] the “MIDAS protein-metabolite interaction (enrichment/depletion)” value (FicD^E234G) was “significantly enriched”.

With CC(C)=CCC/C(C)=C/CC/C(C)=C/COP(=O)(O)OP(=O)(O)O [FPP, farnesyl-pyrophosphate] the “inhibition of deAMPylation activity of FicD^WT” value (FicD^WT) was “inhibited”, the “concentration at which inhibition of deAMPylation started” value (FicD^WT) was 1 µM and the “apparent EC50 of inhibition of deAMPylation” value (FicD^WT; substrate exceeds FPP by two to three orders of magnitude) was “low micromolar range”.

For CC(C)=CCC/C(C)=C/COP(=O)(O)OP(=O)(O)O [GPP, geranyl-pyrophosphate], the “MIDAS protein-metabolite interaction (enrichment/depletion)” value (FicD^E234G) was “significantly enriched”, the “inhibition of deAMPylation activity of FicD^WT” value (FicD^WT) was “inhibited” and the “concentration at which inhibition of deAMPylation started” value (FicD^WT) was 5 µM.
